Activity calls are given as the source filed them. The rule behind the calls is not given here.
Key:
Stromelysin-1 = Stromelysin-1 (Homo sapiens, UniProt P08254); assay: Inhibition of MMP3
Caspase-1 (Homo sapiens) = biological target: T1, Caspase-1 (Homo sapiens) (UniProt P29466); assay: (§1) Inhibition of caspase 1
T1 sequence (whole entry): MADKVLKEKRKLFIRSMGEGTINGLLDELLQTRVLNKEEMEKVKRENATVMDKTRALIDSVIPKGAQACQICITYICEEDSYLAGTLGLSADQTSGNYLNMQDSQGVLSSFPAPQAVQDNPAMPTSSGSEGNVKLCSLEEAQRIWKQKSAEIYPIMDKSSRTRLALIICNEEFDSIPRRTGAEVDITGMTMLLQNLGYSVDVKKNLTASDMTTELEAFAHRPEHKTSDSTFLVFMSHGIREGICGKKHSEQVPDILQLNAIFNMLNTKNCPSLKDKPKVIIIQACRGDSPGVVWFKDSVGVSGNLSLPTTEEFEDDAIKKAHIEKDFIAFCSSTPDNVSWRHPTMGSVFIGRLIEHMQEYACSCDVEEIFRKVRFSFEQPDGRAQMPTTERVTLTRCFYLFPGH

Caspase-1 = biological target: T2, Caspase-1 (Homo sapiens, UniProt P29466); assay: as §1
T2 sequence (P29466 whole entry): T1 sequence (whole entry)

Row | Activity (Stromelysin-1) | Activity (Caspase-1 (Homo sapiens)) | IC50 (Stromelysin-1) | IC50 (Caspase-1) | Structure (SMILES)
1 | Active | Active |  |  | CC(=O)OC(c1ccccc1)c1cc(=O)c(C(=O)NC(=O)CC(C)C)cn1CCO (stereo not drawn)
2 | Active | Active |  |  | CC(=O)OC(c1ccccc1)c1cc(=O)c(C(=O)NC(=O)CC(C)C)co1 (stereo not drawn)
3 |  |  | 330 nM | 330 nM | CC(C)C[C@H]1C[C@H]([C@@H](O)CC(=O)Cc2ccccc2)C(=O)N1 [BERKELEYAMIDE A]
4 |  |  | 610 nM | 610 nM | CC(C)CC1(O)NC(=O)C2(OC(Cc3ccccc3)=CC2=O)C1O (stereo not drawn) [BERKELEYAMIDE D]

— ChEMBL document CHEMBL1149876, “The berkeleyamides, amides from the acid lake fungus Penicillum rubrum” (J Nat Prod, 2008)
